Structures can show the parent of a compound that is named as a salt. Where two headings read alike, the source gives them in different places.
Assays:
[1] = test system: S. aureus strain ATCC 13709 (methicillin-susceptible); assay: Murine model for lethal bacteremic peritonitis; type: in vivo, female Swiss-Webster mice; parameters: ED50: unit: mg/kg; settings: SC, 72 h; for ED50: two equal doses, IP challenge
In short: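 Female Swiss-Webster mice were challenged IP with an LD100 inoculum in 7% hog gastric mucin, then given test drug subcutaneously in twofold increments (0.01–512 mg/kg) as two equal doses at challenge and 2 h later, 10 mice per group. Survival was scored at 72 h; PD50 (total mg/kg) was derived by probit.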

[2] = test system: S. aureus Col(Meth^R)(lac^-); assay: In vitro MIC, agar dilution; type: cell-based
In short: (§1)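 Two-fold dilutions (128 to ≤0.25 μg/mL, in duplicate) were poured into Mueller-Hinton agar. Log-phase broth cultures were spot-inoculated at about 10^4 cfu per spot and incubated 35-36°C for 16-20 hours; the MIC was the lowest concentration inhibiting growth. Col is a high-level PBP2a producer; Col 8A is its isogenic PBP2a-lacking partner.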

[3] = test system: S. aureus Col8A(Meth^S)(lac^-); assay: In vitro MIC, agar dilution; type: cell-based; settings: S. aureus Col8A(Meth^S)(lac^-)
In short: as §1

E. faecium ATCC 35667 = assay: In vitro MIC, agar dilution; type: cell-based
In short: (§2)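 Growth inhibition was scored after 16-20 h at 35-36 °C on Mueller-Hinton agar carrying serial two-fold drug concentrations (128 to ≤0.25 μg/mL). Inocula of ~10^4 cfu per spot came from 4-6 h broth cultures.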

[4] = test system: S. aureus 76(Meth^R)(lac^+); assay: In vitro MIC, agar dilution; type: cell-based
In short: as §2

E. faecium A491(Amp^R) = assay: In vitro MIC, agar dilution; type: cell-based
In short: as §2

[5] = test system: S. aureus PC1(Meth^S)(lac^+); assay: In vitro MIC, agar dilution; type: cell-based
In short: as §2

E. faecium VanA(Van^R) = assay: In vitro MIC, agar dilution; type: cell-based
In short: as §2

[6] = test system: S. aureus ATCC 33593(Meth^R); assay: In vitro MIC, agar dilution; type: cell-based
In short: as §2

[7] = test system: S. haemolyticus 05(Meth^R); assay: In vitro MIC, agar dilution; type: cell-based
In short: as §2

E. coli ATCC 25992 = assay: In vitro MIC, agar dilution; type: cell-based
In short: as §2

E. faecalis VanB(Van^R) = assay: In vitro MIC, agar dilution; type: cell-based
In short: as §2

[8] = test system: S. aureus Spain #356(Meth^R); assay: In vitro MIC, agar dilution; type: cell-based
In short: as §2

[9] = test system: S. aureus ATCC 13709(Meth^S); assay: In vitro MIC, agar dilution; type: cell-based
In short: as §2

E. faecalis ATCC 29212 = assay: In vitro MIC, agar dilution; type: cell-based
In short: as §2

S. aureus ATCC 29213 = assay: In vitro MIC, agar dilution; type: cell-based
In short: as §2

P. aeruginosa ATCC 27853 = assay: In vitro MIC, agar dilution; type: cell-based
In short: as §2

[10] = Staphylococcus aureus, read-out: minimum inhibitory concentration (MIC)
[11] = Enterococcus faecium, read-out: minimum inhibitory concentration (MIC)

## Nc1nc(/C(=N/O)C(=O)N[C@@H]2C(=O)N3C(C(=O)O)=C(Sc4ccncc4SCCNC=O)CS[C@H]23)c(Cl)s1 [Cmpd 64, (7R)-7-[(Z)-2-(2-amino-5-chlorothiazol-4-yl)-2-(hydroxyimino)acetamido]-3-(3-(N-formylaminoethylthio)pyrid-4-ylthio)-3-cephem-4-carboxylate, trifluoroacetic acid salt]
[1]; Staphylococcus aureus, ATCC13709, Dose 0.3125 mg/kg, read-out: Survivors
  responders at 0.3125 mg/kg: 10%
[1]; Staphylococcus aureus, ATCC13709, Dose 0.625 mg/kg, read-out: Survivors
  responders at 0.625 mg/kg: 10%
[1]; Staphylococcus aureus, ATCC13709, Dose 1.25 mg/kg, read-out: Survivors (converted)
  responders at 1.25 mg/kg: 40%
[1]; Staphylococcus aureus, ATCC13709, Dose 2.5 mg/kg, read-out: Survivors
  responders at 2.5 mg/kg: 40%
[1]; Staphylococcus aureus, ATCC13709, Dose 5 mg/kg, read-out: Survivors
  responders at 5 mg/kg: 80%
[1]; Staphylococcus aureus, ATCC13709, read-out: ED50
  ED50: 2.27 mg/kg
[2]; [10]
  MIC: 2 µg/mL
[3]; [10]
  MIC: 0.25 µg/mL
E. faecium ATCC 35667; Enterococcus faecium, ATCC35667, read-out: minimum inhibitory concentration (MIC)
  MIC: 1 µg/mL
[4]; [10]
  MIC: 4 µg/mL
E. faecium A491(Amp^R); [11]
  MIC: 16 µg/mL
[5]; [10]
  MIC: 0.5 µg/mL
E. faecium VanA(Van^R); [11]
  MIC: 2 µg/mL
[6]; Staphylococcus aureus, ATCC33593, read-out: minimum inhibitory concentration (MIC)
  MIC: 2 µg/mL
[7]; Staphylococcus haemolyticus, read-out: minimum inhibitory concentration (MIC)
  MIC: 4 µg/mL
E. coli ATCC 25992; Escherichia coli, ATCC25992, read-out: minimum inhibitory concentration (MIC)
  MIC: 8 µg/mL
E. faecalis VanB(Van^R); Enterococcus faecalis, read-out: minimum inhibitory concentration (MIC)
  MIC: 0.5 µg/mL
[8]; [10]
  MIC: 4 µg/mL
[9]; Staphylococcus aureus, ATCC13709, S. aureus ATCC 13709(Meth^S), read-out: minimum inhibitory concentration (MIC)
  MIC: 0.25 µg/mL
E. faecalis ATCC 29212; Enterococcus faecalis, ATCC29212, read-out: minimum inhibitory concentration (MIC)
  MIC: 0.25 µg/mL
S. aureus ATCC 29213; Staphylococcus aureus, ATCC29213, read-out: minimum inhibitory concentration (MIC)
  MIC: 0.25 µg/mL
P. aeruginosa ATCC 27853; Pseudomonas aeruginosa, ATCC27853, read-out: minimum inhibitory concentration (MIC)
  MIC: > 32 µg/mL

## (7R)-7-[(Z)-2-(aminothiazol-4-yl)-2-(hydroxyimino)acetamido]-3-[(methylaminoethylaminoethylthiomethyl)-1,2,3-thiadiazol-5-ylthio]-3-cephem-4-carboxylate, trifluoroacetic acid salt [Cmpd 11]
[1]; Dose 0.156 mg/kg
  Survivors: 1/10
[1]; Dose 0.3125 mg/kg
  Survivors: 1/10
[1]; Dose 0.625 mg/kg
  Survivors: 3/10
[1]; Dose 1.25 mg/kg
  Survivors: 5/10
[1]; Dose 2.5 mg/kg
  Survivors: 6/10
[1]
  ED50: 0.96 mg/kg
[2]
  minimum inhibitory concentration (MIC): 4 µg/mL
[3]
  minimum inhibitory concentration (MIC): 1 µg/mL
E. faecium ATCC 35667
  minimum inhibitory concentration (MIC): 2 µg/mL
[4]
  minimum inhibitory concentration (MIC): 8 µg/mL
E. faecium A491(Amp^R)
  minimum inhibitory concentration (MIC): > 32 µg/mL
[5]
  minimum inhibitory concentration (MIC): 1 µg/mL
E. faecium VanA(Van^R)
  minimum inhibitory concentration (MIC): 4 µg/mL
[6]
  minimum inhibitory concentration (MIC): 4 µg/mL
[7]
  minimum inhibitory concentration (MIC): 4 µg/mL
E. coli ATCC 25992
  minimum inhibitory concentration (MIC): 8 µg/mL
E. faecalis VanB(Van^R)
  minimum inhibitory concentration (MIC): 0.5 µg/mL
[8]
  minimum inhibitory concentration (MIC): 8 µg/mL
[9]; S. aureus ATCC 13709(Meth^S)
  minimum inhibitory concentration (MIC): 0.5 µg/mL
E. faecalis ATCC 29212
  minimum inhibitory concentration (MIC): 0.25 µg/mL
S. aureus ATCC 29213
  minimum inhibitory concentration (MIC): 0.5 µg/mL
P. aeruginosa ATCC 27853
  minimum inhibitory concentration (MIC): > 32 µg/mL
